The record followed here is ChEMBL document CHEMBL1201862, “PubChem BioAssay data set” (2004).

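Method: 48-hour compound exposure of cells in 96-well plates, five concentrations, linear interpolation of endpoints. Abbreviation: GI50, concentration required for 50% inhibition of growth.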 Activity calls are given as the source filed them. No stated cut-off is given here; in the data, active = GI50 up to about 1.1 µM and inactive = higher.

Test systems include SF-268; 786-0; SN12C; EKVX; M14; HCT-116; Hs-578T; OVCAR-5; SK-MEL-5; OVCAR-4; HOP-92; HOP-62; Malme-3M; BT-549; SW-620; HCC 2998; U-251; IGROV-1; NCI-H522.
What all share (assay): NCI anticancer screen, dose series, 48 h

On to `C=CCN1C(=O)CNC1=S`, for which the GI50 with SF-268, with 786-0, with SN12C, in the experiment on EKVX, in the experiment with M14 and in the experiment on HCT-116 was > 100 µM (inactive) throughout. In addition, the GI50 in the experiment on Hs-578T, in the experiment with OVCAR-5, in the experiment with SK-MEL-5, in the experiment on OVCAR-4, in the experiment on HOP-92 and with HOP-62 was > 100 µM (inactive) each time. Besides, the GI50 in the experiment with Malme-3M, in the experiment on BT-549, with SW-620, in the experiment on HCC 2998, in the experiment on U-251 and in the experiment with IGROV-1 was > 100 µM (inactive) throughout. In addition, the GI50 in the experiment on NCI-H522 is > 100 µM (inactive).

Regarding `Cn1cnc([N+](=O)[O-])c1[Se]c1nc(N)nc2c1ncn2C1OC(CO)C(O)C1O` (stereo not given), the GI50 with SF-268, with 786-0, in the experiment with SN12C, with EKVX, in the experiment with M14 and in the experiment on HCT-116 was > 100 µM (inactive) each time. The GI50 in the experiment on Hs-578T, in the experiment with OVCAR-5, in the experiment with SK-MEL-5, with OVCAR-4, with HOP-92 and with HOP-62 was > 100 µM (inactive) each time. The GI50 in the experiment with Malme-3M, in the experiment on BT-549, in the experiment with SW-620, with HCC 2998, with U-251 and with IGROV-1 was > 100 µM (inactive) in each case. In addition, the GI50 in the experiment with NCI-H522 is > 100 µM (inactive).

Take `Cc1nc(SCC(=O)Nc2ccc(Cl)cc2)c2sc(=S)n(-c3ccccc3)c2n1`: the GI50 in the experiment on SF-268, with 786-0, in the experiment on SN12C, in the experiment on EKVX, in the experiment with M14 and in the experiment on HCT-116 was > 10 µM (inactive) throughout. The GI50 with Hs-578T was > 10 µM (inactive); with OVCAR-5, > 10 µM (inactive); with SK-MEL-5, > 10 µM (inactive); in the experiment with OVCAR-4 it was > 10 µM (inactive); with HOP-92, 5.15 µM (inactive); in the experiment with HOP-62 it was > 10 µM (inactive). The GI50 with Malme-3M, in the experiment on BT-549, in the experiment on SW-620, in the experiment with HCC 2998, with U-251 and in the experiment on IGROV-1 was > 10 µM (inactive) throughout. In the experiment on NCI-H522, the GI50 is > 10 µM (inactive).

In the case of `C=CC[C@@]1(OC(C)=O)C(=O)C(=O)OC1C1COC(C)(C)O1` (stereo not given in full), the GI50 is 19.5 µM (inactive) with SF-268; 11.7 µM (inactive) in the experiment with 786-0; 17.6 µM (inactive) with SN12C; 16.4 µM (inactive) in the experiment with EKVX; 15.7 µM (inactive) with M14; 13.1 µM (inactive) in the experiment with HCT-116. In addition, the GI50 was 31 µM (inactive) in the experiment on Hs-578T; 19.8 µM (inactive) with OVCAR-5; 16.6 µM (inactive) in the experiment on SK-MEL-5; 18.6 µM (inactive) in the experiment with OVCAR-4; 14.6 µM (inactive) with HOP-92; 49.4 µM (inactive) in the experiment on HOP-62. In addition, the GI50 in the experiment on Malme-3M is 17.2 µM (inactive); with BT-549, 21.1 µM (inactive); with SW-620 it was 11.9 µM (inactive); in the experiment with HCC 2998 it was 20.7 µM (inactive); in the experiment with U-251 it was 16.9 µM (inactive); with IGROV-1, 18.6 µM (inactive). In the experiment with NCI-H522, the GI50 was 6.12 µM (inactive).

Take `Cc1ccc([S+](c2ccccc2)c2cc(C)ccc2C)cc1.O=C(OC(C(=O)[O-])C(OC(=O)c1ccccc1)C(=O)O)c1ccccc1` (stereo not given): the GI50 in the experiment on SF-268 was 22.1 µM (inactive); in the experiment with 786-0, 26.2 µM (inactive); with SN12C it was 17.7 µM (inactive); in the experiment with EKVX, > 100 µM (inactive); in the experiment on M14, 18.9 µM (inactive); in the experiment with HCT-116, 3.49 µM (inactive). For the same molecule, the GI50 was 5.12 µM (inactive) with Hs-578T; 23.2 µM (inactive) in the experiment on OVCAR-5; 3.85 µM (inactive) with SK-MEL-5; 46 µM (inactive) with OVCAR-4; 13.5 µM (inactive) in the experiment on HOP-92; 21.5 µM (inactive) in the experiment with HOP-62. The GI50 in the experiment with Malme-3M was 44.9 µM (inactive); in the experiment with BT-549, 3.37 µM (inactive); with SW-620 it was 7.89 µM (inactive); in the experiment with HCC 2998, 7.46 µM (inactive); with U-251 it was 5.37 µM (inactive); with IGROV-1, 10.7 µM (inactive). The GI50 in the experiment on NCI-H522 was 3.55 µM (inactive).

On to `C=CCN1C(=O)/C(=C/c2ccccc2)NC1=S`, for which the GI50 in the experiment on SF-268 is > 100 µM (inactive); in the experiment with 786-0, > 100 µM (inactive); in the experiment on SN12C, > 100 µM (inactive); in the experiment with EKVX, 91 µM (inactive); with M14, > 100 µM (inactive); in the experiment with HCT-116 it was > 100 µM (inactive). Further, the GI50 in the experiment on Hs-578T was > 100 µM (inactive); with OVCAR-5, > 100 µM (inactive); with SK-MEL-5, 65.5 µM (inactive); with OVCAR-4, > 100 µM (inactive); in the experiment on HOP-92, > 100 µM (inactive); in the experiment with HOP-62, > 100 µM (inactive). Further, the GI50 in the experiment with Malme-3M, with BT-549, in the experiment on SW-620, in the experiment with HCC 2998, with U-251 and in the experiment with IGROV-1 was > 100 µM (inactive) each time. Further, the GI50 in the experiment with NCI-H522 is 94.6 µM (inactive).

For the molecule `COC(=O)c1ccccc1C1CN=NC12Cc1cc(C)cc(C)c1C2=O` (stereo not given), the GI50 with SF-268 was > 100 µM (inactive); in the experiment with 786-0 it was > 100 µM (inactive); in the experiment with SN12C it was 83.2 µM (inactive); in the experiment with EKVX, 70 µM (inactive); with M14, 67.8 µM (inactive); in the experiment on HCT-116, 44.1 µM (inactive). In addition, the GI50 in the experiment with Hs-578T was 86.3 µM (inactive); in the experiment on OVCAR-5, > 100 µM (inactive); in the experiment on SK-MEL-5, 31.3 µM (inactive); with OVCAR-4 it was 65.3 µM (inactive); in the experiment on HOP-92, 26.9 µM (inactive); in the experiment on HOP-62 it was > 100 µM (inactive). Also, the GI50 in the experiment on Malme-3M is 97.9 µM (inactive); with BT-549 it was 63.4 µM (inactive); in the experiment on SW-620 it was 62.7 µM (inactive); with HCC 2998 it was 46.9 µM (inactive); in the experiment with U-251, 64.1 µM (inactive); in the experiment with IGROV-1 it was > 100 µM (inactive). Also, in the experiment with NCI-H522, the GI50 was 13.3 µM (inactive).

For `Cc1cc2c(c(/C=N/c3ccc(N(C)C)cc3)c1)OC1(C=C2)Oc2ccccc2C(=O)N1C` (stereo not given), the GI50 is 17.1 µM (inactive) in the experiment on SF-268; 14.2 µM (inactive) with 786-0; 15.7 µM (inactive) in the experiment on SN12C; 12.5 µM (inactive) in the experiment on EKVX; 14.5 µM (inactive) in the experiment with M14; 8.22 µM (inactive) in the experiment on HCT-116. The GI50 in the experiment with Hs-578T is 21.5 µM (inactive); in the experiment with OVCAR-5 it was 17.7 µM (inactive); in the experiment on SK-MEL-5 it was 13.9 µM (inactive); in the experiment on OVCAR-4 it was 12.6 µM (inactive); in the experiment on HOP-92, 16.4 µM (inactive); with HOP-62, > 43 µM (inactive). For the same molecule, the GI50 is 17.7 µM (inactive) in the experiment with Malme-3M; 8.63 µM (inactive) in the experiment on BT-549; 17.3 µM (inactive) in the experiment on SW-620; 16.6 µM (inactive) with HCC 2998; 15.1 µM (inactive) in the experiment with U-251; 13.2 µM (inactive) in the experiment with IGROV-1. The GI50 in the experiment with NCI-H522 is 14.4 µM (inactive).

`COC(=O)[C@@H]1C=C[C@H](OC2OC(COC(C)=O)C(OC(C)=O)C(OC(C)=O)C2OC(C)=O)n2c(=O)n(-c3ccccc3)c(=O)n21` (stereo not given in full): the GI50 in the experiment with SF-268 was 2.51 µM (inactive); with 786-0, 1.41 µM (inactive); in the experiment on SN12C it was 2.69 µM (inactive); with EKVX it was 5.9 µM (inactive); in the experiment on M14 it was 2.36 µM (inactive); in the experiment on HCT-116 it was 1.86 µM (inactive). The GI50 with Hs-578T is 17.3 µM (inactive); with OVCAR-5, 6.27 µM (inactive); with SK-MEL-5, 2.56 µM (inactive); in the experiment on OVCAR-4 it was 1.77 µM (inactive); with HOP-92 it was 1.77 µM (inactive); in the experiment with HOP-62, 14.5 µM (inactive). In addition, the GI50 with Malme-3M was 2.01 µM (inactive); with BT-549, 2.29 µM (inactive); in the experiment with SW-620 it was 1.79 µM (inactive); in the experiment on HCC 2998 it was 8 µM (inactive); in the experiment on U-251, 2.8 µM (inactive); with IGROV-1 it was 3.87 µM (inactive). Further, the GI50 in the experiment on NCI-H522 was 0.507 µM (active).

On to `CC(C)(Cl)C(Br)CC/C(=C/CBr)CBr.CC(C)(Cl)C(Br)CC/C(=C\CBr)CBr` (stereo not given), for which the GI50 with SF-268 was 2.14 µM (inactive); in the experiment with 786-0, 1.59 µM (inactive); with SN12C, 2.49 µM (inactive); with EKVX, 24.8 µM (inactive); with M14, 2 µM (inactive); with HCT-116 it was 1.79 µM (inactive). Besides, the GI50 is 4.69 µM (inactive) in the experiment with Hs-578T; 13.2 µM (inactive) in the experiment on OVCAR-5; 2.87 µM (inactive) in the experiment with SK-MEL-5; 2.25 µM (inactive) with OVCAR-4; 2.03 µM (inactive) in the experiment with HOP-92; 5.93 µM (inactive) in the experiment with HOP-62. The GI50 in the experiment on Malme-3M was 1.78 µM (inactive); with BT-549, 2.77 µM (inactive); in the experiment with SW-620 it was 2.3 µM (inactive); in the experiment with HCC 2998 it was 5.82 µM (inactive); in the experiment with U-251, 2 µM (inactive); in the experiment on IGROV-1 it was 2.28 µM (inactive). For the same molecule, the GI50 in the experiment with NCI-H522 is 1.68 µM (inactive).
